In US20140120595A1 (priority 2008, published 2014):
≈ marks a conversion by molar mass, not a printed value.

Test system: E. coli K12
Assay: microbe, parasite or virus in culture
Details: Escherichia coli, K12, 24 h, read-out: minimum inhibitory concentration (MIC)
Description: Overnight cultures of E. coli K12 were started in 5 mL LB containing no antibiotic 12-16 hours before the experiment was performed. LB broth was inoculated using aseptic technique. The culture was incubated overnight in a shaking incubator at 37 C.
The next morning 10 mL of M9 was inoculated with 100 μL of cells from the overnight culture. The tube was inverted to mix the cells prior to incubation at 37 C in the shaking incubator. While the cells were growing 96 well plates were prepared for inoculation.
A solution of concentrated M9 was made by combining 4 mL of 5×M9 salts, 40 μL of 20% glucose, 40 μL 1M MgSO4, and 2 μL of 1M CaCl2.
The plate was loaded as follows: 45 μL of concentrated M9 mixture was added to each well containing the compound concentrations and the following dilutions were performed:
Controls were prepared and loaded onto the plate as follows: 135 μL of H2O was added to positive control wells. 45 μL of the concentrated M9 mixture was added to each positive control well. 200 μL of water was added to each negative control well.
The OD600 of the cells from the overnight culture that was inoculated into M9 was checked using the spectrophotometer. The final OD600 of the cells was between 0.195 and 0.200. To achieve a final OD within this range the spectrophotometer was blanked with water. […]

**Q.** With OCCCCO [1,4-BDO, 1,4-butanediol] as the compound, how does the MIC read?
**A.** 50 mg/mL (≈ 555 mM)
